Source: patent publication US8637523B2, “Compounds for the reduction of beta-amyloid production” (Bristol-Myers Squibb Company, priority 2010, dated 2014)

system: Aβ42; assay: Cellular assay for inhibition of Aβ1-42 production (H4 APP751 SWE clone 8.20); assay type: cell-based; conditions: 19 h, H4 APP751 SWE clone 8.20 cells, 19 h incubation; read-out: Activity Rating (Aβ42 cellular IC50), class symbol
Experimental: Cellular Assays for Inhibition of Aβ1-40 and Aβ1-42 Production
H4 cells stably transfected with APP751 containing the Swedish mutation (H4 APP751 SWE clone 8.20, developed at BMS) were maintained in log phase through twice weekly passage at a 1:20 split. […] Following incubation for 19 h in 5% CO2 at 37° C., plates were briefly centrifuged (1000 rpm, 5 min). A 10 μl aliquot from each well was transferred to a second assay plate (Costar 3709) for Aβ40 measurements. Antibody cocktails were freshly prepared by dilution into 40 mM Tris-HCl (pH 7.4) with 0.2% BSA and added to assay plates. For Aβ42 measurements, antibodies specific for the Aβ42 neoepitope (565, developed at BMS; conjugated to the Wallac reagent (Perkin Elmer)) and the N-terminal sequence of Aβ peptide (26D6, developed at SIBIA; conjugated to APC (Perkin Elmer)) were mixed and 20 μl of the mixture was added to each well of the incubated cell plate yielding a final concentration of 0.8 ng/well 565 and 75 ng/well 26D6. For the Aβ40 measurements, antibodies specific for the Aβ40 neoepitope (TSD, developed at BMS; conjugated to the Wallac reagent (Perkin Elmer)) and 26D6 as described above were mixed and 20 μl of the mixture was added to the 10 μl aliquots which had been removed previously from the cell plate yielding a final concentration of 1.6 ng/well TSD and 17.5 ng/well 26D6. Assay plates containing antibodies were sealed with aluminum foil and incubated overnight at 4° C. Signal was determined using a Viewlux counter (Perkin Elmer) and IC50 values determined using curve fitting in CurveMaster (Excel Fit based).

Structure (SMILES) | IC50 [nM]
CC1C/C=C\COc2cc(ccc2-n2cnc(Cl)c2)Nc2nc(c3c(n2)C(c2ccccc2)CC3)N1 (stereo not drawn) [Example 6B, (11Z)-7-(4-chloro-1H-imidazol-1-yl)-14-methyl-19-phenyl-3,10,13,14,15,17,18,19-octahydro-2,16-(azeno)-8,4-(metheno)cyclopenta[j][1,7,9,13]oxatriazacyclooctadecine] | 10 to 100
CC1C/C=C/COc2cc(ccc2-n2cnc(Cl)c2)Nc2nc(c3c(n2)C(c2ccccc2)CC3)N1 (stereo not drawn) [Example 7B, (11E)-7-(4-chloro-1H-imidazol-1-yl)-14-methyl-19-phenyl-3,10,13,14,15,17,18,19-octahydro-2,16-(azeno)-8,4-(metheno)cyclopenta[j][1,7,9,13]oxatriazacyclooctadecine] | 100 to 1000
Clc1cn(-c2ccc3cc2OCCOCCNc2nc(nc4c2CCC4c2ccccc2)N3)cn1 (stereo not drawn) [Example 8A, 7-(4-chloro-1H-imidazol-1-yl)-19-phenyl-10,11,13,14,15,17,18,19-octahydro-16,2-(azeno)-8,4-(metheno)cyclopenta[i][1,4,7,11,13]dioxatriazacyclooctadecine] | < 10
Clc1cn(-c2ccc3cc2OCCCNc2nc(nc4c2CCC4c2ccccc2)N3)cn1 (stereo not drawn) [Example 9A, 7-(4-chloro-1H-imidazol-1-yl)-17-phenyl-11,12,13,15,16,17-hexahydro-10H-14,2-(azeno)-8,4-(metheno)cyclopenta[g][1,5,9,11]oxatriazacyclohexadecine] | < 10

Other lines, results leading:

IC50 [nM] | Structure (SMILES)
10 to 100 | Clc1cn(-c2ccc3cc2OC/C=C/CCNc2nc(nc4c2CCC4c2ccccc2)N3)cn1 (stereo not drawn) [Example 5B, (11E)-7-(4-chloro-1H-imidazol-1-yl)-19-phenyl-3,10,13,14,15,17,18,19-octahydro-2,16-(azeno)-8,4-(metheno)cyclopenta[j][1,7,9,13]oxatriazacyclooctadecine]
10 to 100 | CN1CCCOc2cc(ccc2-n2cnc(Cl)c2)Nc2nc3c(c1n2)CCC3c1ccccc1 (stereo not drawn) [Example 10A, 7-(4-chloro-1H-imidazol-1-yl)-13-methyl-17-phenyl-11,12,13,15,16,17-hexahydro-10H-14,2-(azeno)-8,4-(metheno)cyclopenta[g][1,5,9,11]oxatriazacyclohexadecine]
10 to 100 | Clc1cn(-c2ccc3cc2OCCCCCNc2nc(nc4c2CCC4c2ccccc2)N3)cn1 (stereo not drawn) [Example 11B, 7-(4-chloro-1H-imidazol-1-yl)-19-phenyl-3,10,11,12,13,14,15,17,18,19-decahydro-2,16-(azeno)-8,4-(metheno)cyclopenta[f][1,7,9,13]oxatriazacyclooctadecine]
< 10 | Clc1cn(-c2ccc3cc2OCCCCNc2nc(nc4c2CCC4c2ccccc2)N3)cn1 (stereo not drawn) [Example 12A, 7-(4-chloro-1H-imidazol-1-yl)-18-phenyl-10,11,12,13,14,16,17,18-octahydro-15,2-(azeno)-8,4-(metheno)cyclopenta[h][1,6,10,12]oxatriazacycloheptadecine]
< 10 | CN1CCCCOc2cc(ccc2-n2cnc(Cl)c2)Nc2nc3c(c1n2)CCC3c1ccccc1 (stereo not drawn) [Example 13A, 7-(4-chloro-1H-imidazol-1-yl)-14-methyl-18-phenyl-10,11,12,13,14,16,17,18-octahydro-15,2-(azeno)-8,4-(metheno)cyclopenta[h][1,6,10,12]oxatriazacycloheptadecine]

same assay, conditions: 19 h, H4 APP751 SWE clone 8.20 cells, 19 h incubation; unit inferred; read-out: Activity Rating (Aβ42 cellular IC50), numeric value

IC50 [nM] | Structure (SMILES)
3.6 | CC1C/C=C\COc2cc(ccc2-n2cnc(Cl)c2)Nc2nc(c3c(n2)C(c2ccccc2)CC3)N1 (stereo not drawn) [Example 6A, (11Z)-7-(4-chloro-1H-imidazol-1-yl)-14-methyl-19-phenyl-3,10,13,14,15,17,18,19-octahydro-2,16-(azeno)-8,4-(metheno)cyclopenta[j][1,7,9,13]oxatriazacyclooctadecine]
8.8 | CC1C/C=C/COc2cc(ccc2-n2cnc(Cl)c2)Nc2nc(c3c(n2)C(c2ccccc2)CC3)N1 (stereo not drawn) [Example 7A, (11E)-7-(4-chloro-1H-imidazol-1-yl)-14-methyl-19-phenyl-3,10,13,14,15,17,18,19-octahydro-2,16-(azeno)-8,4-(metheno)cyclopenta[j][1,7,9,13]oxatriazacyclooctadecine]
17 | Clc1cn(-c2ccc3cc2OCCCNc2nc(nc4c2CCC4c2ccccc2)N3)cn1 (stereo not drawn) [Example 9B, 7-(4-chloro-1H-imidazol-1-yl)-17-phenyl-11,12,13,15,16,17-hexahydro-10H-14,2-(azeno)-8,4-(metheno)cyclopenta[g][1,5,9,11]oxatriazacyclohexadecine]
3.8 | Clc1cn(-c2ccc3cc2OCCCCCNc2nc(nc4c2CCC4c2ccccc2)N3)cn1 (stereo not drawn) [Example 11A, 7-(4-chloro-1H-imidazol-1-yl)-19-phenyl-3,10,11,12,13,14,15,17,18,19-decahydro-2,16-(azeno)-8,4-(metheno)cyclopenta[f][1,7,9,13]oxatriazacyclooctadecine]
26 | CN1CCCCOc2cc(ccc2-n2cnc(Cl)c2)Nc2nc3c(c1n2)CCC3c1ccccc1 (stereo not drawn) [Example 13B, 7-(4-chloro-1H-imidazol-1-yl)-14-methyl-18-phenyl-10,11,12,13,14,16,17,18-octahydro-15,2-(azeno)-8,4-(metheno)cyclopenta[h][1,6,10,12]oxatriazacycloheptadecine]

same assay, conditions: H4 APP751 SWE clone 8.20 cells, 19 h incubation; read-out: Activity Rating (Aβ42 cellular IC50), class symbol

Structure (SMILES) | IC50 [nM]
CN1CC=CCOc2cc(ccc2-n2cnc(Cl)c2)Nc2nc3c(c1n2)CCC3c1ccccc1 (stereo not drawn) [Example 3A, (11Z)-7-(4-chloro-1H-imidazol-1-yl)-14-methyl-18-phenyl-10,13,14,16,17,18-hexahydro-15,2-(azeno)-8,4-(metheno)cyclopenta[h][1,6,10,12]oxatriazacycloheptadecine] | < 10
CN1CC=CCOc2cc(ccc2-n2cnc(Cl)c2)Nc2nc3c(c1n2)CCC3c1ccccc1 (stereo not drawn) [Example 4A, (11E)-7-(4-chloro-1H-imidazol-1-yl)-14-methyl-18-phenyl-10,13,14,16,17,18-hexahydro-15,2-(azeno)-8,4-(metheno)cyclopenta[h][1,6,10,12]oxatriazacycloheptadecine] | < 10
Fc1ccc(C2CCc3c4nc(nc32)Nc2ccc(-n3cnc(Cl)c3)c(c2)OCC=CCN4)c(F)c1 (stereo not drawn) [Example 14B, (11Z)-7-(4-chloro-1H-imidazol-1-yl)-18-(2,4-difluorophenyl)-10,13,14,16,17,18-hexahydro-15,2-(azeno)-8,4-(metheno)cyclopenta[h][1,6,10,12]oxatriazacycloheptadecine] | 10 to 100

Other lines, results leading:

IC50 [nM] | Structure (SMILES)
10 to 100 | CN1CC=CCOc2cc(ccc2-n2cnc(Cl)c2)Nc2nc3c(c1n2)CCC3c1ccccc1 (stereo not drawn) [Example 3B, (11Z)-7-(4-chloro-1H-imidazol-1-yl)-14-methyl-18-phenyl-10,13,14,16,17,18-hexahydro-15,2-(azeno)-8,4-(metheno)cyclopenta[h][1,6,10,12]oxatriazacycloheptadecine]
10 to 100 | CN1CC=CCOc2cc(ccc2-n2cnc(Cl)c2)Nc2nc3c(c1n2)CCC3c1ccccc1 (stereo not drawn) [Example 4B, (11E)-7-(4-chloro-1H-imidazol-1-yl)-14-methyl-18-phenyl-10,13,14,16,17,18-hexahydro-15,2-(azeno)-8,4-(metheno)cyclopenta[h][1,6,10,12]oxatriazacycloheptadecine]
< 10 | Clc1cn(-c2ccc3cc2OC/C=C/CCNc2nc(nc4c2CCC4c2ccccc2)N3)cn1 (stereo not drawn) [Example 5A, (11E)-7-(4-chloro-1H-imidazol-1-yl)-19-phenyl-3,10,13,14,15,17,18,19-octahydro-2,16-(azeno)-8,4-(metheno)cyclopenta[j][1,7,9,13]oxatriazacyclooctadecine]
10 to 100 | Clc1cn(-c2ccc3cc2OCCCCNc2nc(nc4c2CCC4c2ccccc2)N3)cn1 (stereo not drawn) [Example 12B, 7-(4-chloro-1H-imidazol-1-yl)-18-phenyl-10,11,12,13,14,16,17,18-octahydro-15,2-(azeno)-8,4-(metheno)cyclopenta[h][1,6,10,12]oxatriazacycloheptadecine]
< 10 | Fc1ccc(C2CCc3c4nc(nc32)Nc2ccc(-n3cnc(Cl)c3)c(c2)OCC=CCN4)c(F)c1 (stereo not drawn) [Example 14A, (11Z)-7-(4-chloro-1H-imidazol-1-yl)-18-(2,4-difluorophenyl)-10,13,14,16,17,18-hexahydro-15,2-(azeno)-8,4-(metheno)cyclopenta[h][1,6,10,12]oxatriazacycloheptadecine]
< 10 | Fc1ccc(C2CCc3c4nc(nc32)Nc2ccc(-n3cnc(Cl)c3)c(c2)OCC=CCN4)c(F)c1 (stereo not drawn) [Example 15A, (11E)-7-(4-chloro-1H-imidazol-1-yl)-18-(2,4-difluorophenyl)-10,13,14,16,17,18-hexahydro-15,2-(azeno)-8,4-(metheno)cyclopenta[h][1,6,10,12]oxatriazacycloheptadecine]

same assay, conditions: H4 APP751 SWE clone 8.20 cells, 19 h incubation; unit inferred; read-out: Activity Rating (Aβ42 cellular IC50), numeric value

IC50 [nM] | Structure (SMILES)
23 | Fc1ccc(C2CCc3c4nc(nc32)Nc2ccc(-n3cnc(Cl)c3)c(c2)OCC=CCN4)c(F)c1 (stereo not drawn) [Example 15B, (11E)-7-(4-chloro-1H-imidazol-1-yl)-18-(2,4-difluorophenyl)-10,13,14,16,17,18-hexahydro-15,2-(azeno)-8,4-(metheno)cyclopenta[h][1,6,10,12]oxatriazacycloheptadecine]
